“Also recorded” adds a separate entry of the source.
Assays:
[1] = test system: 4-hydroxy-2-alkylquinoline (HAQ) levels, P. aeruginosa PA14 (MvfR regulon); assay type: cell-based, Pseudomonas aeruginosa; settings: for reduction / inhibition of HAQs: very low concentrations, nanomolar range; for concentration at which compound was effective (decreased HAQ levels), as low as: among the seventeen HAQ-lowering hits
[2] = test system: pyocyanin, an MvfR-regulated virulence factor, P. aeruginosa PA14; experiment: Quantification of pyocyanin (OD520nm of chloroform-extracted cultures); assay type: cell-based, Pseudomonas aeruginosa; settings: for reduction / inhibition of pyocyanin: very low concentrations, nanomolar range; for pyocyanin levels: twelve of the 17 HAQ-lowering hits, vs control
Description: Pyocyanin levels were determined by measuring OD520nm of chloroform-extracted cultures.
Compounds were tested at various concentrations for their impact on 4-hydroxy-2-alkylquinoline (HAQ) levels, including the MvfR ligands 4-hydroxy-2-heptylquinoline (HHQ) and 3,4-dihydroxy-2-heptylquinoline (PQS), as well as 2-n-heptyl-4-hydroxyquinoline-N-oxide (HQNO) and 2,4-dihydroxyquinoline (DHQ) (FIGS. 2A-2C). Levels of the phenazine, pyocyanin, an MvfR-regulated virulence factor, were also determined.

[3] = test system: ΔmvfR mutant constitutively expressing the pqsABCD genes; experiment: HAQ production in ΔmvfR mutant constitutively expressing pqsABCD (LC/MS); assay type: cell-based, Pseudomonas aeruginosa; settings: 100 μM inhibitor
From the text: However, since these compounds diminish or abolish P. aeruginosa HAQ production, it is possible that they target either the MvfR protein itself or enzymes in the pqs operon that are required for HAQ synthesis. To further understand the target(s) of these compounds, a ΔmvfR mutant constitutively expressing the pqsABCD genes was used. This strain is capable of synthesizing HHQ, HQNO, PQS and DHQ independently of MvfR. […] Since PqsA and PqsD are necessary and sufficient for DHQ production, it is possible that these inhibitors target either PqsB or PqsC enzymes, which are required for HHQ and PQS production.

[4] = test system: Raw264.7 macrophage cells infected with PA14; experiment: Viability of PA14-infected macrophage cells (MTT assay); assay type: cell-based; settings: for reduction of PA14-induced cytotoxicity: PA14 MOI 100, 3 h, 100 μM compound
Description: Raw264.7 macrophage cells were cultured in Dulbecco's modified eagles medium (DMEM) containing 10% FCS, 2 mM glutamine and antibiotic-antimycotic solutions. Before infections cells were washed with PBS (without Mg2+ and Ca2+) and antibiotic-free medium was used for infections. The cells were infected with PA14 and PA14 isolates grown in the presence of compounds at an MOI of 100 for 3 h at 37° C. in a 5% CO2 atmosphere. During infections cells were incubated with 100 μM of compounds as well. After 3 hours of PA14 infection, the cells were washed and incubated with DMEM medium containing polymixin B and gentamicin in order to kill the extracellular bacteria. The viability of Raw264.7 was assessed using the MTT assay, which detects the early sign of eukaryotic cell death. The formazan crystals formed in viable, metabolically active cells were dissolved by the addition of 100 μl DMSO and optical density was measured at 570 nm in a microplate reader.
In order to determine whether or not the potent inhibitors are cytotoxic in eukaryotes, Raw 264.7 macrophage cells were exposed to selected compounds. No significant cytotoxicity was observed following compound exposure for 3 hours compared to the DMSO solvent control (FIG. 6A). The cytotoxicity of the macrophage cells was also determined when infected with PA14 bacterial cells alone or in the presence of the compounds.

P. aeruginosa PA14 [5] = experiment: Murine burn and infection model, M64 plus ciprofloxacin; assay type: in vivo, DC-1 mice; settings: IV at 6, 20, 28, 40, 60, 68 and 80 h; M64 100 μM (4 mg/Kg), ciprofloxacin 0.4 mg/Kg; 7 days; un-injected controls 30%
From the text: A murine thermal injury model (Stevens et al., J Burn Care Rehabil. 1994; 15:232-235) was used as previously described to further assess bacterial pathogenicity in 6-wk-old DC-1 mice (Rahme et al., Science, 268(5219): p. 1899-902 (1995)) in the presence of combination of Ciprofloxacin (Bayer AG) and M64. Following mouse anesthetization, a full-thickness thermal burn injury involving 5%-8% of the body surface area was produced on the dermis of the shaved abdomen, and an inoculum of about 6-7×10^3 PA14 cells was injected intradermally into the burn eschar along with DMSO or 100 μM M64 compound. 100 μM (4 mg/Kg) of M64, 0.4 mg/Kg of ciprofloxacin (lower than the recommended dose of 10 mg/Kg), or a combination of M64+ciproflocaxin was also injected IV via tail vein at 6, 20, 28, 40, 60, 68 h and 80 h post-infection. Mice survival was subsequently assessed over the course of 7 days. Ten animals per treatment were used. In this set of experiments the concentration of ciprofloxacin used was lower than the therapeutic levels recommended to permit assessment of the possible synergistic effect between M64 and ciprofloxacin.

[6] = biological target: MvfR binding to pqsA promoter (Pseudomonas aeruginosa, UniProt Q9I4X0)
Chain of MvfR binding to pqsA promoter (Q9I4X0 whole entry, looked up): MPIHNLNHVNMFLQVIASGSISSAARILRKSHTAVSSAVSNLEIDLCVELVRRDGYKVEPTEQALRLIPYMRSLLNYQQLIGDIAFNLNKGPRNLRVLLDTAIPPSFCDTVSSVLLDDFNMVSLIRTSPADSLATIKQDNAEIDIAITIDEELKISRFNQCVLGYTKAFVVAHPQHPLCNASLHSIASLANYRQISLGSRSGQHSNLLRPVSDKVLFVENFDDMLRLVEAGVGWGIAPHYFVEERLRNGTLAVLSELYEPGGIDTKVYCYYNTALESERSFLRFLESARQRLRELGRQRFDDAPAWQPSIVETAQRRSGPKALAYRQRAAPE

P. aeruginosa PA14 [7] = experiment: Murine burn and infection model; settings: ~100 μM compound/mouse at infection and IV at 6 and 24 h; solvent control 38%
Description: A thermal injury mouse model was used as described previously to assess bacterial pathogenicity in 6 week old BALBC mice (Charles River Laboratories). Following mouse anesthetization, a full-thickness thermal burn injury involving 5%-8% of the body surface area was produced on the dermis of the shaved abdomen. An inoculum of 4×10^4 PA14 cells, corresponding to a lethal dose of 50%, was injected intradermally into the burn eschar along with the compound or solvent, prepared as follows: 5 μl of a 50 mM stock in DMSO of compound was added to a solution of 5% CremophorEL/Ethanol (50/50% vol) in 50 μl saline. […] Each mouse also received IV injections of 50 μl of compound or solvent, as prepared above at 6 hours and 24 hours post-infection.
A murine thermal injury and infection model was used to assess the impact of the compounds on P. aeruginosa pathogenesis in animals. Due to the hydrophobic nature of the compounds, 5% CremophorEL/Ethanol (50/50% vol) was used as an emulsifier to dissolve the compound in saline prior to injecting into animals. […] The bacteria and either 100 μM compound/mouse or DMSO control were co-injected at the time of infection. Compounds were also injected 6 hours and 24 hours post-infection.

O=C(CSc1nc2ccccc2[nH]1)Nc1ccccc1 [Compound M56, 2-((1H-benzo[d]imidazol-2-yl)thio)-N-phenylacetamide]
HAQ production / HAQ inhibition ([1]; tested at 10 μM): little impact | pyocyanin production ([2]; tested at 10 μM): little impact

N#Cc1ccc(NC(=O)CSc2nc3ccc([N+](=O)[O-])cc3[nH]2)cc1 [Compound M62, N-(4-cyanophenyl)-2-((6-nitro-1H-benzo[d]imidazol-2-yl)thio)acetamide]
activity (impacts on HAQ and pyocyanin levels), structure-activity comparison ([1]; tested at 10 μM): most active | HAQ levels compared to the solvent control [3]: do not significantly alter HAQ levels | reduction of PA14-induced cytotoxicity [4]: effectively reduced cytotoxicity

O=C(CSc1nc2ccc([N+](=O)[O-])cc2[nH]1)Nc1ccc(Br)cc1 [Compound M50, N-(4-bromophenyl)-2-((6-nitro-1H-benzo[d]imidazol-2-yl)thio)acetamide]
activity (impacts on HAQ and pyocyanin levels), structure-activity comparison ([1]; tested at 10 μM): most active | reduction / inhibition of HAQs [1]: considerably inhibited | reduction / inhibition of pyocyanin [2]: considerably inhibited | HAQ levels compared to the solvent control [3]: do not significantly alter HAQ levels | reduction of PA14-induced cytotoxicity [4]: effectively reduced cytotoxicity

O=C(CSc1nc2ccccc2[nH]1)Nc1ccc(Cl)cc1 [Compound M26, 2-((1H-benzo[d]imidazol-2-yl)thio)-N-(4-chlorophenyl)acetamide]
concentration at which compound was effective (decreased HAQ levels), as low as [1]: 10 µM | activity (impacts on HAQ and pyocyanin levels), structure-activity comparison ([1]; tested at 10 μM): active compounds | pyocyanin levels [2]: less than half of the control | DHQ level [3]: increased | HHQ and HQNO levels [3]: reduced

CCc1ccc(NC(=O)CSc2nc3ccc(C)cc3[nH]2)cc1 [Compound M23, N-(4-ethylphenyl)-2-((6-methyl-1H-benzo[d]imidazol-2-yl)thio)acetamide]
activity (impacts on HAQ and pyocyanin levels), structure-activity comparison ([1]; tested at 10 μM): moderately active | pyocyanin levels [2]: less than half of the control | DHQ level [3]: increased | HHQ and HQNO levels [3]: reduced

N#Cc1ccc(NC(=O)CSc2nc3ccccc3[nH]2)cc1 [Compound B1, 2-((1H-benzo[d]imidazol-2-yl)thio)-N-(4-cyanophenyl)acetamide]
activity (impacts on HAQ and pyocyanin levels), structure-activity comparison ([1]; tested at 10 μM): active compounds | pyocyanin levels [2]: less than half of the control | HAQ levels compared to the solvent control [3]: intermediate phenotype

O=C(CSc1nc2ccc([N+](=O)[O-])cc2[nH]1)Nc1ccc(Oc2ccccc2)cc1 [Compound M64, 2-((6-nitro-1H-benzo[d]imidazol-2-yl)thio)-N-(4-phenoxyphenyl)acetamide]
reduction / inhibition of HAQs [1]: one of the most effective; also recorded: considerably inhibited | reduction / inhibition of pyocyanin [2]: one of the most effective; also recorded: considerably inhibited | viability at 100 µM ([4]; Mus musculus, RAW264.7, 3 h, read-out: viable macrophage cells surviving post-infection): 80% | reduction of PA14-induced cytotoxicity [4]: effectively reduced cytotoxicity | survival rate (P. aeruginosa PA14 [5]): 75% | effect on MvfR binding to pqsA promoter (ChIP fold enrichment) [6]: affects MvfR binding to pqsA promoter by competing with the MvfR ligand PQS | overall surviving mice (P. aeruginosa PA14 [7]): 84%

COc1ccc(NC(=O)CSc2nc3ccc([N+](=O)[O-])cc3[nH]2)c(OC)c1 [Compound M34, N-(2,4-dimethoxyphenyl)-2-((6-nitro-1H-benzo[d]imidazol-2-yl)thio)acetamide]
concentration at which compound was effective (decreased HAQ levels), as low as [1]: 10 µM | activity (impacts on HAQ and pyocyanin levels), structure-activity comparison ([1]; tested at 10 μM): quite active | pyocyanin levels [2]: less than half of the control | HAQ levels compared to the solvent control [3]: do not significantly alter HAQ levels

Cc1ccc2nc(SCC(=O)Nc3ccc(Br)cc3)[nH]c2c1 [Compound M27, N-(4-bromophenyl)-2-((6-methyl-1H-benzo[d]imidazol-2-yl)thio)acetamide]
concentration at which compound was effective (decreased HAQ levels), as low as [1]: 10 µM | activity (impacts on HAQ and pyocyanin levels), structure-activity comparison ([1]; tested at 10 μM): more active than M55 | pyocyanin levels [2]: less than half of the control | DHQ level [3]: increased | HHQ and HQNO levels [3]: reduced | reduction of PA14-induced cytotoxicity [4]: effectively reduced cytotoxicity

O=C(O)c1cn(C2CC2)c2cc(N3CCNCC3)c(F)cc2c1=O [ciprofloxacin, reference compound]
survival rate (P. aeruginosa PA14 [5]): 80%

O=C(CSc1nc2ccc([N+](=O)[O-])cc2[nH]1)Nc1ccc(I)cc1 [Compound M59, N-(4-iodophenyl)-2-((6-nitro-1H-benzo[d]imidazol-2-yl)thio)acetamide]
activity (impacts on HAQ and pyocyanin levels), structure-activity comparison ([1]; tested at 10 μM): most active | reduction / inhibition of HAQs [1]: considerably inhibited | reduction / inhibition of pyocyanin [2]: considerably inhibited | HAQ levels compared to the solvent control [3]: intermediate phenotype

— patent US8877940B2, “Antibiotic tolerance inhibitors” (Institut National de la Recherche Scientifique, priority 2011, dated 2014)
